#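 Following 48 hours of exposure in 96-well plates, responses at five concentrations were used to interpolate endpoints linearly. GI50: concentration for 50% inhibition of growth.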 Active and inactive are the calls of the source. Rule as the data show it: active = GI50 up to about 1.1 µM and inactive = higher.
# What was measured:
# Assay in all cases: NCI tumour cell line growth inhibition, 48 h
# ACHN = tested on: ACHN
# U-251 = tested on: U-251
# SF-539 = tested on: SF-539
# TK-10 = tested on: TK-10
# SNB-75 = tested on: SNB-75
# HCT-116 = tested on: HCT-116
# Malme-3M = tested on: Malme-3M
# HCT-15 = tested on: HCT-15
# DU-145 = tested on: DU-145
# KM12 = tested on: KM12
# MDA-N = tested on: MDA-N
# OVCAR-5 = tested on: OVCAR-5
# MCF7 = tested on: MCF7
# NCI-H23 = tested on: NCI-H23
# M14 = tested on: M14
# SN12C = tested on: SN12C
# UACC-62 = tested on: UACC-62
# SK-MEL-28 = tested on: SK-MEL-28
# CCRF-CEM = tested on: CCRF-CEM
# MOLT-4 = tested on: MOLT-4
# IGROV-1 = tested on: IGROV-1
# BT-549 = tested on: BT-549
# SK-OV-3 = tested on: SK-OV-3
# MDA-MB-231 = tested on: MDA-MB-231
# HOP-62 = tested on: HOP-62
# OVCAR-4 = tested on: OVCAR-4
# HOP-92 = tested on: HOP-92
# 786-0 = tested on: 786-0
# SF-295 = tested on: SF-295
# NCI-H226 = tested on: NCI-H226
# SK-MEL-5 = tested on: SK-MEL-5
# SW-620 = tested on: SW-620
# A498 = tested on: A498
# A549 = tested on: A549
# UO-31 = tested on: UO-31
# LOX IMVI = tested on: LOX IMVI
# CAKI-1 = tested on: CAKI-1
# NCI-H522 = tested on: NCI-H522
# OVCAR-3 = tested on: OVCAR-3
# RXF 393 = tested on: RXF 393
# OVCAR-8 = tested on: OVCAR-8
# NCI-H460 = tested on: NCI-H460
# SNB-19 = tested on: SNB-19
# T47D = tested on: T47D
# PC-3 = tested on: PC-3
# HL-60 = tested on: HL-60
# K562 = tested on: K562
# Hs-578T = tested on: Hs-578T
# UACC-257 = tested on: UACC-257
# SF-268 = tested on: SF-268
# NCI/ADR-RES = tested on: NCI/ADR-RES
# SR = tested on: SR
# MDA-MB-435 = tested on: MDA-MB-435
# SK-MEL-2 = tested on: SK-MEL-2
# COLO 205 = tested on: COLO 205
# HT-29 = tested on: HT-29
# RPMI-8226 = tested on: RPMI-8226
# EKVX = tested on: EKVX
# HCC 2998 = tested on: HCC 2998
smiles,measurement,setting,value
COc1cc(S(=O)(=O)Nc2nc(-c3ccc(N4C(=O)/C(=C\c5cccs5)N=C4c4ccccc4)cc3)cs2)ccc1Cl,GI50,ACHN,> 100 µM (inactive)
same,GI50,U-251,45.4 µM (inactive)
same,GI50,SF-539,49.9 µM (inactive)
same,GI50,TK-10,> 100 µM (inactive)
same,GI50,SNB-75,51.4 µM (inactive)
same,GI50,HCT-116,49.2 µM (inactive)
same,GI50,Malme-3M,23.6 µM (inactive)
same,GI50,HCT-15,> 100 µM
same,GI50,DU-145,> 100 µM (inactive)
same,GI50,KM12,94 µM (inactive)
same,GI50,MDA-N,43.1 µM (inactive)
same,GI50,OVCAR-5,> 100 µM (inactive)
same,GI50,MCF7,40 µM (inactive)
same,GI50,NCI-H23,34.8 µM (inactive)
same,GI50,M14,> 100 µM (inactive)
same,GI50,SN12C,58.5 µM (inactive)
same,GI50,UACC-62,25.3 µM (inactive)
same,GI50,SK-MEL-28,71.6 µM (inactive)
same,GI50,CCRF-CEM,41 µM (inactive)
same,GI50,MOLT-4,43.9 µM (inactive)
same,GI50,IGROV-1,42.2 µM (inactive)
same,GI50,BT-549,34.5 µM (inactive)
same,GI50,SK-OV-3,> 100 µM (inactive)
same,GI50,MDA-MB-231,29.8 µM (inactive)
same,GI50,HOP-62,> 100 µM (inactive)
same,GI50,OVCAR-4,57.3 µM (inactive)
same,GI50,HOP-92,28.1 µM (inactive)
same,GI50,786-0,> 100 µM (inactive)
same,GI50,SF-295,> 100 µM (inactive)
same,GI50,NCI-H226,> 100 µM (inactive)
same,GI50,SK-MEL-5,43.2 µM (inactive)
same,GI50,SW-620,> 100 µM (inactive)
same,GI50,A498,> 100 µM (inactive)
same,GI50,A549,> 100 µM (inactive)
same,GI50,UO-31,> 100 µM (inactive)
same,GI50,LOX IMVI,32.1 µM (inactive)
same,GI50,CAKI-1,> 100 µM (inactive)
same,GI50,NCI-H522,29.4 µM (inactive)
same,GI50,OVCAR-3,> 100 µM (inactive)
same,GI50,RXF 393,32.1 µM (inactive)
same,GI50,OVCAR-8,46 µM (inactive)
same,GI50,NCI-H460,> 100 µM (inactive)
same,GI50,SNB-19,66.2 µM (inactive)
same,GI50,T47D,45.8 µM (inactive)
same,GI50,PC-3,66.8 µM (inactive)
same,GI50,HL-60,36.7 µM (inactive)
same,GI50,K562,64.9 µM (inactive)
same,GI50,Hs-578T,24 µM (inactive)
same,GI50,UACC-257,71.3 µM (inactive)
same,GI50,SF-268,18.7 µM (inactive)
same,GI50,NCI/ADR-RES,> 100 µM (inactive)
same,GI50,SR,39.5 µM (inactive)
same,GI50,MDA-MB-435,55.6 µM (inactive)
same,GI50,SK-MEL-2,29.2 µM (inactive)
same,GI50,COLO 205,> 100 µM (inactive)
same,GI50,HT-29,> 100 µM (inactive)
Cc1cc(O)c(C(c2ccncc2)c2c(O)cc(C)[nH]c2=O)c(=O)[nH]1,GI50,ACHN,> 100 µM (inactive)
same,GI50,U-251,> 100 µM (inactive)
same,GI50,TK-10,> 100 µM (inactive)
same,GI50,HCT-116,> 100 µM (inactive)
same,GI50,Malme-3M,> 100 µM (inactive)
same,GI50,HCT-15,> 100 µM
same,GI50,DU-145,> 100 µM (inactive)
same,GI50,KM12,> 100 µM (inactive)
same,GI50,MDA-N,> 100 µM (inactive)
same,GI50,OVCAR-5,> 100 µM (inactive)
same,GI50,MCF7,> 100 µM (inactive)
same,GI50,RPMI-8226,> 100 µM (inactive)
same,GI50,NCI-H23,> 100 µM (inactive)
same,GI50,M14,> 100 µM (inactive)
same,GI50,SN12C,> 100 µM (inactive)
same,GI50,UACC-62,> 100 µM (inactive)
same,GI50,SK-MEL-28,> 100 µM (inactive)
same,GI50,CCRF-CEM,> 100 µM (inactive)
same,GI50,MOLT-4,> 100 µM (inactive)
same,GI50,IGROV-1,> 100 µM (inactive)
same,GI50,BT-549,> 100 µM (inactive)
same,GI50,SK-OV-3,> 100 µM (inactive)
same,GI50,MDA-MB-231,> 100 µM (inactive)
same,GI50,HOP-62,> 100 µM (inactive)
same,GI50,OVCAR-4,> 100 µM (inactive)
same,GI50,786-0,> 100 µM (inactive)
same,GI50,SF-295,> 100 µM (inactive)
same,GI50,SK-MEL-5,> 100 µM (inactive)
same,GI50,A549,> 100 µM (inactive)
same,GI50,UO-31,> 100 µM (inactive)
same,GI50,LOX IMVI,> 100 µM (inactive)
same,GI50,CAKI-1,5.12 µM (inactive)
same,GI50,NCI-H522,> 100 µM (inactive)
same,GI50,OVCAR-3,> 100 µM (inactive)
same,GI50,RXF 393,> 100 µM (inactive)
same,GI50,OVCAR-8,> 100 µM (inactive)
same,GI50,NCI-H460,> 100 µM (inactive)
same,GI50,SNB-19,> 100 µM (inactive)
same,GI50,EKVX,> 100 µM (inactive)
same,GI50,T47D,> 100 µM (inactive)
same,GI50,PC-3,> 100 µM (inactive)
same,GI50,HL-60,> 100 µM (inactive)
same,GI50,K562,> 100 µM (inactive)
same,GI50,Hs-578T,> 100 µM (inactive)
same,GI50,UACC-257,> 100 µM (inactive)
same,GI50,SF-268,> 100 µM (inactive)
same,GI50,NCI/ADR-RES,> 100 µM (inactive)
same,GI50,SR,> 100 µM (inactive)
same,GI50,MDA-MB-435,> 100 µM (inactive)
same,GI50,COLO 205,> 100 µM (inactive)
same,GI50,HT-29,> 100 µM (inactive)
COC(=O)CCC1=NCC(C)(C)O1,GI50,ACHN,> 10 µM (inactive)
same,GI50,U-251,> 10 µM (inactive)
same,GI50,SF-539,> 10 µM (inactive)
same,GI50,TK-10,> 10 µM (inactive)
same,GI50,SNB-75,2.79 µM (inactive)
same,GI50,HCT-116,> 10 µM (inactive)
same,GI50,Malme-3M,> 10 µM (inactive)
same,GI50,HCT-15,> 10 µM
same,GI50,DU-145,> 10 µM (inactive)
same,GI50,KM12,> 10 µM (inactive)
same,GI50,MDA-N,> 10 µM (inactive)
same,GI50,OVCAR-5,> 10 µM (inactive)
same,GI50,MCF7,> 10 µM (inactive)
same,GI50,RPMI-8226,> 10 µM (inactive)
same,GI50,NCI-H23,> 10 µM (inactive)
same,GI50,M14,> 10 µM (inactive)
same,GI50,SN12C,> 10 µM (inactive)
same,GI50,UACC-62,> 10 µM (inactive)
same,GI50,SK-MEL-28,> 10 µM (inactive)
same,GI50,CCRF-CEM,> 10 µM (inactive)
same,GI50,MOLT-4,> 10 µM (inactive)
same,GI50,IGROV-1,> 10 µM (inactive)
same,GI50,BT-549,> 10 µM (inactive)
same,GI50,SK-OV-3,> 10 µM (inactive)
same,GI50,MDA-MB-231,> 10 µM (inactive)
same,GI50,HOP-62,> 10 µM (inactive)
same,GI50,OVCAR-4,> 10 µM (inactive)
same,GI50,786-0,> 10 µM (inactive)
same,GI50,SF-295,> 10 µM (inactive)
same,GI50,NCI-H226,> 10 µM (inactive)
same,GI50,SK-MEL-5,> 10 µM (inactive)
same,GI50,SW-620,> 10 µM (inactive)
same,GI50,A498,> 10 µM (inactive)
same,GI50,A549,> 10 µM (inactive)
same,GI50,UO-31,> 10 µM (inactive)
same,GI50,LOX IMVI,> 10 µM (inactive)
same,GI50,CAKI-1,> 10 µM (inactive)
same,GI50,NCI-H522,> 10 µM (inactive)
same,GI50,OVCAR-3,> 10 µM (inactive)
same,GI50,RXF 393,> 10 µM (inactive)
same,GI50,OVCAR-8,> 10 µM (inactive)
same,GI50,NCI-H460,> 10 µM (inactive)
same,GI50,SNB-19,> 10 µM (inactive)
same,GI50,EKVX,> 10 µM (inactive)
same,GI50,T47D,> 10 µM (inactive)
same,GI50,PC-3,> 10 µM (inactive)
same,GI50,K562,0.182 µM (active)
same,GI50,Hs-578T,> 10 µM (inactive)
same,GI50,UACC-257,> 10 µM (inactive)
same,GI50,SF-268,> 10 µM (inactive)
same,GI50,NCI/ADR-RES,> 10 µM (inactive)
same,GI50,HCC 2998,> 10 µM (inactive)
same,GI50,SR,> 10 µM (inactive)
same,GI50,MDA-MB-435,> 10 µM (inactive)
same,GI50,SK-MEL-2,> 10 µM (inactive)
same,GI50,COLO 205,> 10 µM (inactive)
same,GI50,HT-29,> 10 µM (inactive)
